Results: patent publication US20240376097A1, “BCL-2 Inhibitor” (BeiGene Ltd., priority 2020, published 2024)
pIC50: −log10 of the molar value. Where two headings read alike, the source gives them in different places.

Tests used:
[1] = molecular target: Recombinant human Bcl-2 protein (Homo sapiens (Human), UniProt P10415); assay: Bcl-2 TR-FRET Assay; assay type: binding
How it was run: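 0.05 nM Bcl-2 pre-incubated 0.5 h at room temperature with 10-point compound dilutions (top final 1, 0.1, 0.02 or 0.01 uM) in 20 mM potassium phosphate pH 7.5, 50 mM NaCl, 1 mM EDTA, 0.05% Tween-20, 0.01% BSA; FITC-Bak peptide (0.5 nM) and anti-6His Tb cryptate added, 1 h. IC50 from four-parameter logistic fit.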

[2] = tested on: RS4;11 (BCL-2 dependent acute lymphoblastic leukemia cell line); assay: RS4;11 Cell Proliferation Assay; assay type: cell-based; details: Homo sapiens, RS4-11, RS4;11 cells, read-out: Cellular proliferation assay (IC50, nM) RS4
How it was run: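 RS4;11 cells, 50,000 per well in RPMI-1640 with 10% FBS, treated 48 h at 37 °C with a 10-point dilution series topping at 1 μM. Viability read by CellTiter-Glo ATP luminescence; mean IC50 reported.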

[3] = tested on: BCL-2 G101V knock-in cell line H96 (derive from RS4;11); assay: Bcl 2-G101V Knock-In RS4;11 Cell Proliferation Assay; assay type: cell-based; details: Homo sapiens, RS4;11 Bcl-2 G101V knock-in clone H96, 48 hrs, CellTiter-GLO, read-out: Cellular proliferation assay (IC50, nM) RS4
How it was run: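 H96, a CRISPR-generated RS4;11 clone carrying BCL2-G101V knock-in (WES/RNA-seq validated), seeded 50,000 per well and exposed 48 h at 37 °C to 10-point dilutions topping at 1 or 10 μM. Viability by CellTiter-Glo luminescence; mean IC50.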

[4] = tested on: recombinant human Bcl-2-G101V protein; assay: Bcl-2-G101V TR-FRET Assay; assay type: binding; details: ratio of biochemical IC50 Bcl-2 G101V / Bcl-2 WT
How it was run: (§1)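 Percent inhibition of the Bcl-2-G101V–ligand interaction was computed from the 490 nm to 520 nm emission ratio after 337 nm excitation, over increasing compound concentrations; a four-parameter logistic fit gave IC50.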

[5] = molecular target: recombinant human Bcl-2-G101V protein (Homo sapiens (Human), UniProt P10415, G101V); assay: Bcl-2-G101V TR-FRET Assay; assay type: binding; details: Bcl-2 G101V mutant, TR-FRET; read-out: Biochemical assay (IC50, nM) Bcl-2 G101V
How it was run: as §1

[6] = molecular target: recombinant human Bcl-2 D103Y protein (Homo sapiens (Human), UniProt P10415, D103Y); assay: Bcl-2-D103Y Biochemical Assay (TR-FRET); assay type: binding; details: for pIC50: TR-FRET, FITC labeled Bak peptide; for Ratio of Bcl-2 D103Y/Bcl-2 WT: ratio of IC50
How it was run: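 Recombinant human Bcl-2 D103Y binding to its ligand measured by TR-FRET (ex 337 nm, em 490/520 nm) with increasing compound concentrations. Percent inhibition from the 490/520 nm ratio; IC50 from four-parameter logistic fit.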

[7] = Bcl-2 wild type, TR-FRET, read-out: Biochemical assay (IC50, nM) Bcl-2 WT
[8] = wild type Bcl-2, unit inferred, read-out: Bcl-2 WT

SMILES | IC50 [1, 7] [nM] | IC50 [1, 8] [nM] | IC50 [2] [nM] | IC50 [3] [nM] | Ratio of Bcl-2 G101V/WT [4] | IC50 [5] [nM] | pIC50 [6] | Ratio of Bcl-2 D103Y/Bcl-2 WT [6]
CC(C)c1ccccc1C1CN(Cc2cccc3c2OCO3)CCN1C1CC2(CCN(c3ccc(C(=O)NS(=O)(=O)c4ccc(NC[C@H]5CC[C@](C)(O)CC5)c([N+](=O)[O-])c4)c(Oc4cnc5[nH]ccc5c4)c3)CC2)C1 (stereo partly drawn) [Example 115, 2-((1H-pyrrolo[2,3-b]pyridin-5-yl)oxy)-4-(2-(4-(benzo[d][1,3]dioxol-4-ylmethyl)-2-(2-isopropylphenyl)piperazin-1-yl)-7-azaspiro[3.5]nonan-7-yl)-N-((4-((((1r,4r)-4-hydroxy-4-methylcyclohexyl)methyl)amino)-3-nitrophenyl)sulfonyl)benzamide] | 0.097 | 0.097 | 0.42 | 2.3 | 3.8 | 0.37 | 9.24 | 5.9
COc1cc(CN2CCN(C3CC4(C3)CN(c3ccc(C(=O)NS(=O)(=O)c5ccc(NC[C@H]6CC[C@](C)(O)CC6)c([N+](=O)[O-])c5)c(Oc5cnc6[nH]ccc6c5)c3)C4)[C@H](c3ccccc3C(C)C)C2)cc2c1OCC2(C)C [Example 296, 2-((1H-pyrrolo[2,3-b]pyridin-5-yl)oxy)-N-((4-((((1r,4r)-4-hydroxy-4-methylcyclohexyl)methyl)amino)-3-nitrophenyl)sulfonyl)-4-(6-((R)-2-(2-isopropylphenyl)-4-((7-methoxy-3,3-dimethyl-2,3-dihydrobenzofuran-5-yl)methyl)piperazin-1-yl)-2-azaspiro[3.3]heptan-2-yl)benzamide] | 0.13 | 0.13 | 0.24 | 0.55 | 2.1 | 0.28 | 9.85 | 1.1
CC(C)c1ccccc1C1CN(Cc2cnn(C)c2)CCN1C1CC2(CCN(c3ccc(C(=O)NS(=O)(=O)c4ccc(NC[C@H]5CC[C@](C)(O)CC5)c([N+](=O)[O-])c4)c(Oc4cnc5[nH]ccc5c4)c3)CC2)C1 (stereo partly drawn) [Example 22, 2-((1H-pyrrolo[2,3-b]pyridin-5-yl)oxy)-N-((4-((((1r,4r)-4-hydroxy-4-methylcyclohexyl)methyl)amino)-3-nitrophenyl)sulfonyl)-4-(2-(2-(2-isopropylphenyl)4-((1-methyl-1H-pyrazol-4-yl)methyl)piperazin-1-yl)-7-azaspiro[3.5]nonan-7-yl) benzamide] | 0.013 | 0.013 | 0.46 | 2.6 | 6.1 | 0.079 | 9.92 | 9.2
COCCN1CCN(C2CC3(CCN(c4ccc(C(=O)NS(=O)(=O)c5cc6c(c([N+](=O)[O-])c5)N[C@H](C[C@H]5CC[C@H](O)CC5)CO6)c(Oc5cnc6[nH]ccc6c5)c4)CC3)C2)C(c2ccccc2C(C)C)C1 (stereo partly drawn) [Example 14, 2-((1H-pyrrolo[2,3-b]pyridin-5-yl)oxy)-N-(((R)-3-(((1r, 4R)-4-hydroxycyclohexyl)methyl)-5-nitro-3,4-dihydro-2H-benzo[b][1,4]oxazin-7-yl)sulfonyl)-4-(2-(2-(2-isopropylphenyl)-4-(2-methoxyethyl)piperazin-1-yl)-7-azaspiro[3.5]nonan-7-yl)benzamide] | 0.0065 | 0.0065 | 0.45 | 5.16 | 14.3 | 0.093 | 10.08 | 13
CC(C)c1ccccc1[C@@H]1CN(Cc2ccc3c(c2)OCC3)CCN1C1CC2(CCN(c3ccc(C(=O)NS(=O)(=O)c4ccc(NC[C@H]5CC[C@](C)(O)CC5)c([N+](=O)[O-])c4)c(Oc4cnc5[nH]ccc5c4)c3)CC2)C1 [Example 304, 2-((1H-pyrrolo[2,3-b]pyridin-5-yl)oxy)-4-(2-((R)-4-((2,3-dihydrobenzofuran-6-yl)methyl)-2-(2-isopropylphenyl)piperazin-1-yl)-7-azaspiro[3.5]nonan-7-yl)-N-((4-((((1r,4r)-4-hydroxy-4-methylcyclohexyl)methyl)amino)-3-nitrophenyl)sulfonyl)benzamide] | 0.13 | 0.13 | 0.3 | 2.3 | 3.2 | 0.41 | 9.66 | 1.8
Cc1ccc(CN2CCN(C3CC4(CCN(c5ccc(C(=O)NS(=O)(=O)c6ccc(NC[C@H]7CC[C@](C)(O)CC7)c([N+](=O)[O-])c6)c(Oc6cnc7[nH]ccc7c6)c5)CC4)C3)C(c3ccccc3C(C)C)C2)cc1 (stereo partly drawn) [Example 30, 2-((1H-pyrrolo[2,3-b]pyridin-5-yl)oxy)-N-((4-((((1r,4r)-4-hydroxy-4-methylcyclohexyl)methyl)amino)-3-nitrophenyl)sulfonyl)-4-(2-(2-(2-isopropylphenyl)-4-(4-methylbenzyl)piperazin-1-yl)-7-azaspiro[3.5]nonan-7-yl) benzamide] | 0.27 | 0.27 | 0.53 | 3.48 | 4.1 | 1.1 | 9.38 | 1.6
COc1cc(CN2CCN(C3CC4(CCN(c5ccc(C(=O)NS(=O)(=O)c6ccc(NC[C@H]7CC[C@](C)(O)CC7)c([N+](=O)[O-])c6)c(Oc6cnc7[nH]ccc7c6)c5)CC4)C3)[C@H](c3ccccc3C(C)C)C2)ccc1C(F)F [Example 288, 2-((1H-pyrrolo[2,3-b]pyridin-5-yl)oxy)-4-(2-((R)-4-(4-(difluoromethyl)-3-methoxybenzyl)-2-(2-isopropylphenyl)piperazin-1-yl)-7-azaspiro[3.5]nonan-7-yl)-N-((4-((((1r,4r)-4-hydroxy-4-methylcyclohexyl)methyl)amino)-3-nitrophenyl)sulfonyl)benzamide] | 0.52 | 0.52 | 0.19 | 0.87 | 2.5 | 1.3 | 9.37 | 0.84
COc1cc(CN2CCN(C3CC4(CCN(c5ccc(C(=O)NS(=O)(=O)c6ccc(NC[C@H]7CC[C@](C)(O)CC7)c([N+](=O)[O-])c6)c(Oc6cnc7[nH]cc(F)c7c6)c5)CC4)C3)[C@H](c3ccccc3C(C)C)C2)ccc1C [Example 273, 2-((3-fluoro-1H-pyrrolo[2,3-b]pyridin-5-yl)oxy)-N-((4-((((1r,4r)-4-hydroxy-4-methylcyclohexyl)methyl)amino)-3-nitrophenyl)sulfonyl)-4-(2-((R)-2-(2-isopropylphenyl)-4-(3-methoxy-4-methylbenzyl)piperazin-1-yl)-7-azaspiro[3.5]nonan-7-yl)benzamide] | 0.7 | 0.7 | 0.25 | 0.46 | 2.6 | 1.9 | 9.09 | 1.2
CC(C)c1ccccc1[C@@H]1CN(Cc2ccc(F)cc2)CCN1C1CC2(CCN(c3ccc(C(=O)NS(=O)(=O)c4ccc(NC[C@H]5CC[C@](C)(O)CC5)c([N+](=O)[O-])c4)c(Oc4cnc5[nH]ccc5c4)c3)CC2)C1 (single isomer, unassigned) [Example 28a, 2-((1H-pyrrolo[2,3-b]pyridin-5-yl)oxy)-4-(2-((R or S)-4-(4-fluorobenzyl)-2-(2-isopropylphenyl)piperazin-1-yl)-7-azaspiro[3.5]nonan-7-yl)-N-((4-((((1r,4r)-4-hydroxy-4-methylcyclohexyl)methyl)amino)-3-nitrophenyl)sulfonyl)benzamide] | 0.098 | 0.098 | 0.21 | 1.23 | 3.3 | 0.33 | 9.70 | 2.1
